{"source": "patent US20140220110A1", "about": "“REMOTE LOADING OF SPARINGLY WATER-SOLUBLE DRUGS INTO LIPOSOMES” (ZONEONE PHARMA, INC., priority 2013, published 2014)", "type_in_all_cases": "physicochemical", "key": {"[1]": {"test": "Reverse gradient-directed drug release from liposomes", "conditions": "for % Carfilzomib Released: 65 C 30 min", "procedure": "Liposomes were loaded with carfilzomib as described in Example 1 and were purified into deionized water. The sample was divided into two aliquots. To the first aliquot, concentrated Hepes pH 7.4 and NaCl was added so that the final concentration was 5 mM Hepes, 145 mM NaCl (HBS). To the second aliquot, concentrated ammonium sulfate was added so that the final concentration was 250 mM. No obvious physical changes were initially observed. The samples were then heated at 65° C. for 30 min. The samples were transferred to clean eppendorf tubes and centrifuged for 10,000 rpm for 5 min after which the supernatants and precipitates were separated and tested for carfilzomib content by HPLC assay. Released drug precipitated, liposome encapsulated drug remained in the supernatant. The % carfilzomib released was calculated by […]"}, "[2]": {"test": "Remote loading of carfilzomib precipitate into liposomes (drug and lipid by HPLC after purification)"}, "[3]": {"test": "Carfilzomib solubility as a function of DMSO content (optical density at 600 nm)", "conditions": "0.2 mg/mL carfilzomib", "procedure": "Carfilzomib was added from a stock 10 mg/mL solution in DMSO to 1 mL of a citric acid/DMSO mixture so that the composition of DMSO was 2%, 25%, 50%, 75% and 100%. The final drug concentration was 0.2 mg/mL. The solutions were prepared and measured for optical density at 600 nm. The optical density at 600 nm is a good measure of how turbid or how much scattering material (such as drug precipitates) are in a solution, generally, the more precipitates the higher the absorbance. From FIG. 8 is apparent that at DMSO concentrations below 50% vol/vol (25° C.) and 25% vol/vol (65° C.) the drug remains in a precipitated form. Only when the concentration of DMSO is increased does it become effectively solubilized at this concentration of 0.2 mg/mL."}, "[4]": {"test": "Liposome size by dynamic light scattering", "conditions": "liposomes loaded with carfilzomib, before lyophilizing", "procedure": "The lipid concentration is determined by measuring the cholesterol by HPLC using an Agilent 1100 HPLC with and Agilent Zorbax 5 um, […], Eclipse XDB-C8 column and a mobile phase of A=0.1% TFA, B=0.1% TFA/MeOH with an isocratic elution of 99% B. The flow rate is 1.0 mL/min, column temperature is 50° C., 10 μL injection and detection by absorbance at 205 nm. The retention time of cholesterol is 4.5 min. The liposome size is measured by dynamic light scattering.\nSee Example 1, Carfilzomib liposome entrapment by remote loading for details on how the liposomes were made, purified and characterized."}, "[5]": {"conditions": "250 mM ammonium sulfate liposomes, drug added at 200 g drug/mol HSPC"}, "[6]": {"conditions": "input drug/HSPC 91.8 g/mol, [(NH4)2SO4] 250 mM"}, "[7]": {"conditions": "input drug/HSPC 167.3 g/mol, [(NH4)2SO4] 250 mM"}, "[8]": {"conditions": "input drug/HSPC 251.8 g/mol, [(NH4)2SO4] 250 mM"}, "[9]": {"conditions": "input drug/HSPC 338.1 g/mol, [(NH4)2SO4] 250 mM"}, "[10]": {"conditions": "input drug/HSPC 432.8 g/mol, [(NH4)2SO4] 250 mM"}, "[11]": {"conditions": "input drug/HSPC 450.6 g/mol, [(NH4)2SO4] 500 mM"}, "[12]": {"conditions": "input drug/HSPC 545.9 g/mol, [(NH4)2SO4] 500 mM"}, "[13]": {"conditions": "input drug/HSPC 639.2 g/mol, [(NH4)2SO4] 500 mM"}, "[14]": {"conditions": "input drug/HSPC 639.2 g/mol, [(NH4)2SO4] 500 mM, listed as Carfilzomib"}, "[15]": {"conditions": "input drug/HSPC 758.7 g/mol, [(NH4)2SO4] 500 mM"}, "[16]": {"conditions": "input drug/HSPC 758.7 g/mol, [(NH4)2SO4] 500 mM, listed as Carfilzomib"}, "[17]": {"conditions": "triethylammonium sulfate gradient, input 650 g drug/mol HSPC, at 30 min"}}, "data": [{"molecule": "CC(C)C[C@H](NC(=O)[C@H](CCc1ccccc1)NC(=O)CN1CCOCC1)C(=O)N[C@@H](Cc1ccccc1)C(=O)N[C@@H](CC(C)C)C(=O)[C@@]1(C)CO1", "note": "[carfilzomib]", "values": [{"measurement": "drug released with reverse gradient over control with no reverse gradient", "setting": "[1]", "result": 6.5, "unit": "fold"}, {"measurement": "% Carfilzomib Released", "setting": "[1]; 250 mM ammonium sulfate outside (reverse gradient)", "result": "68.5 ± 1.82", "unit": "%"}, {"measurement": "% Carfilzomib Released", "setting": "[1]; Hepes buffered saline (no reverse gradient)", "result": "10.6 ± 0.28", "unit": "%"}, {"measurement": "degradation of released drug (HPLC chromatogram against starting material)", "setting": "[1]; after loading and release by reverse gradient", "result": "no degradation of carfilzomib had taken place"}, {"measurement": "final drug to lipid ratio", "setting": "[2]; [5]", "result": "136.9±7.35 g drug/mol of HSPC"}, {"measurement": "loading efficiency", "setting": "[2]; [5]", "result": "67.94±3.67", "unit": "%"}, {"measurement": "loading efficiency", "setting": "[2]; DMSO 1% and above (up to 10% v/v), input 200 ug/umol, ammonium sulfate liposomes", "result": "74-94%"}, {"measurement": "loading", "setting": "[2]; DMSO absent", "result": "practically no loading"}, {"measurement": "final drug load", "setting": "[2]; control liposomes with 250 mM sodium sulfate (no gradient), drug added at 200 g drug/mol HSPC", "result": "29.01±0.79 g drug/mol of HSPC"}, {"measurement": "effect of time between precipitate formation and loading on loading efficiency", "setting": "[2]; delay up to 12 h", "result": "does not have a significant impact"}, {"measurement": "efficiency of remote loading", "setting": "[2]; drug added as solid powder, 65 C for 30 min, 100 g drug/mol HSPC", "result": "3.88%±0.053%"}, {"measurement": "efficiency of remote loading", "setting": "[2]; drug added as solid powder, 65 C for 120 min, 100 g drug/mol HSPC", "result": "3.47%±0.030%"}, {"measurement": "Drug payload/carrier weight ratio", "setting": "[2]; [6]", "result": 0.07, "unit": "g drug/g total lipid"}, {"measurement": "Output drug/HSPC", "setting": "[2]; [6]", "result": 83.5, "unit": "g/mol"}, {"measurement": "efficiency", "setting": "[2]; [6]", "result": 90.9, "unit": "%"}, {"measurement": "Drug payload/carrier weight ratio", "setting": "[2]; [7]", "result": 0.11, "unit": "g drug/g total lipid"}, {"measurement": "Output drug/HSPC", "setting": "[2]; [7]", "result": 127.2, "unit": "g/mol"}, {"measurement": "efficiency", "setting": "[2]; [7]", "result": 76.0, "unit": "%"}, {"measurement": "Drug payload/carrier weight ratio", "setting": "[2]; [8]", "result": 0.15, "unit": "g drug/g total lipid"}, {"measurement": "Output drug/HSPC", "setting": "[2]; [8]", "result": 174.1, "unit": "g/mol"}, {"measurement": "efficiency", "setting": "[2]; [8]", "result": 69.1, "unit": "%"}, {"measurement": "Drug payload/carrier weight ratio", "setting": "[2]; [9]", "result": 0.18, "unit": "g drug/g total lipid"}, {"measurement": "Output drug/HSPC", "setting": "[2]; [9]", "result": 210.7, "unit": "g/mol"}, {"measurement": "efficiency", "setting": "[2]; [9]", "result": 62.3, "unit": "%"}, {"measurement": "Drug payload/carrier weight ratio", "setting": "[2]; [10]", "result": 0.20, "unit": "g drug/g total lipid"}, {"measurement": "Output drug/HSPC", "setting": "[2]; [10]", "result": 240.5, "unit": "g/mol"}, {"measurement": "efficiency", "setting": "[2]; [10]", "result": 55.6, "unit": "%"}, {"measurement": "Drug payload/carrier weight ratio", "setting": "[2]; [11]", "result": 0.29, "unit": "g drug/g total lipid"}, {"measurement": "Output drug/HSPC", "setting": "[2]; [11]", "result": 345.2, "unit": "g/mol"}, {"measurement": "efficiency", "setting": "[2]; [11]", "result": 76.6, "unit": "%"}, {"measurement": "Drug payload/carrier weight ratio", "setting": "[2]; [12]", "result": 0.32, "unit": "g drug/g total lipid"}, {"measurement": "Output drug/HSPC", "setting": "[2]; [12]", "result": 380.9, "unit": "g/mol"}, {"measurement": "efficiency", "setting": "[2]; [12]", "result": 69.8, "unit": "%"}, {"measurement": "Drug payload/carrier weight ratio", "setting": "[2]; [13]", "result": 0.37, "unit": "g drug/g total lipid"}, {"measurement": "Output drug/HSPC", "setting": "[2]; [13]", "result": "440 ± 10.2", "unit": "g/mol"}, {"measurement": "efficiency", "setting": "[2]; [13]", "result": "68.7±4.80", "unit": "%"}, {"measurement": "Output drug/HSPC", "setting": "[2]; [14]", "result": 438.9, "unit": "g/mol"}, {"measurement": "efficiency", "setting": "[2]; [14]", "result": 68.7, "unit": "%"}, {"measurement": "Drug payload/carrier weight ratio", "setting": "[2]; [15]", "result": 0.4, "unit": "g drug/g total lipid"}, {"measurement": "Output drug/HSPC", "setting": "[2]; [15]", "result": "469 ± 4.9", "unit": "g/mol"}, {"measurement": "efficiency", "setting": "[2]; [15]", "result": "61.7±1.2", "unit": "%"}, {"measurement": "Drug payload/carrier weight ratio", "setting": "[2]; [16]", "result": 0.40, "unit": "g drug/g total lipid"}, {"measurement": "Output drug/HSPC", "setting": "[2]; [16]", "result": 468.2, "unit": "g/mol"}, {"measurement": "efficiency", "setting": "[2]; [16]", "result": 61.7, "unit": "%"}, {"measurement": "efficiency of remote loading", "setting": "[2]; room temperature, 3 POPC/2 Chol/0.15 PEG-DSPE liposomes, 187 g drug/mol", "result": "100.52%±1.01%"}, {"measurement": "efficiency of remote loading", "setting": "[2]; room temperature, 95 PChemsPC/5 PEG-DSPE liposomes, 100 g drug/mol PChemsPC", "result": "95.5%±1.23%"}, {"measurement": "efficiency of remote loading", "setting": "[2]; trapping agent mellitic acid, 100 g drug/mol HSPC", "result": "37.4%±2.01%"}, {"measurement": "efficiency of remote loading", "setting": "[2]; trapping agent napthelenedisulfonic acid, 100 g drug/mol HSPC", "result": "95.1%±1.76%"}, {"measurement": "efficiency", "setting": "[2]; [17]", "result": "65.9±1.98", "unit": "%"}, {"measurement": "greatest payload achieved", "setting": "[2]; [17]", "result": "440±12.6", "unit": "g drug/mol HSPC"}, {"measurement": "DMSO concentration below which the drug remains in a precipitated form", "setting": "[3]; 25 C", "result": 50, "unit": "% vol/vol"}, {"measurement": "DMSO required to completely dissolve the drug", "setting": "[3]; 65 C", "result": "> 25", "unit": "% vol/vol"}, {"measurement": "PDI", "setting": "[4]; (NH4)2SO4, drug added quickly", "result": 0.062}, {"measurement": "Z-ave", "setting": "[4]; (NH4)2SO4, drug added quickly", "result": 108, "unit": "nm"}, {"measurement": "PDI", "setting": "[4]; (NH4)2SO4, drug added slowly", "result": 0.035}, {"measurement": "Z-ave", "setting": "[4]; (NH4)2SO4, drug added slowly", "result": 109.2, "unit": "nm"}, {"measurement": "PDI", "setting": "[4]; Mellitic Acid", "result": 0.08}, {"measurement": "Z-ave", "setting": "[4]; Mellitic Acid", "result": 105.5, "unit": "nm"}, {"measurement": "PDI", "setting": "[4]; Napthelenedisulfonic acid", "result": 0.039}, {"measurement": "Z-ave", "setting": "[4]; Napthelenedisulfonic acid", "result": 111.9, "unit": "nm"}]}]}
